Measurements published in patent EP4744648A1, “LIPOPEPTIDE-CONTAINING FAT-DISSOLVING PRODUCT, AND PREPARATION METHOD THEREFOR AND USE THEREOF” (Bloomage Biotechnology Corporation Limited, priority 2023, dated 2024).

What was measured:
[1] = system: Mouse adipocyte cell line 3T3-F442A; test: In vitro cytotoxicity test: relative growth rate of cells by CCK-8; assay type: cell-based; settings: Example 8, 24 h, 3T3-F442A; for relative growth rate: X±SD
Procedure: Mouse adipocyte cell line 3T3-F442A in the logarithmic growth phase was seeded into a 96-well plate at a density of 1×10^5 cells/mL, with 100 µL per well. The culture medium consisted of a basal culture medium supplemented with 10% fetal bovine serum. The seeded cells were incubated conventionally in a carbon dioxide incubator at 37°C and 5% CO2 for 24 h.
The solution was freshly prepared before use.
After routine incubation for 24 h, the old culture medium was discarded, and then 100 µL of sample solution was added to replace it in the experimental group. An equal volume of serum-free culture medium was added to the normal control group. Each concentration was set up with at least three replicate wells.
After another incubation for 24 h, the relative growth rate of cells was detected by CCK-8. The culture medium was discarded, 100 µL of CCK-8 diluted 10-fold with the serum-free medium was added to each well. The plate was incubated in a cell incubator for another 2 h. The absorbance was determined using a microplate reader at a wavelength of 450 nm. The relative growth rate (RGR) is a ratio of the absorbance of the experimental group to the absorbance of the normal control group.
3T3-F442A mouse adipocytes in the logarithmic growth phase were seeded into a 96-well plate at a density of 1 × 10^5 cells/mL, with 100 µL per well. After incubation for 24 h, the culture medium was replaced with 100 µL of culture medium containing different concentrations of samples. An equal volume of serum-free culture medium was added to the blank control group, and the incubation was continued for another 24 h. The relative growth rate of cells was determined by CCK-8. The blank control was set as 100%, the relative growth rate and half inhibitory concentration of each group were calculated.

Female Kunming mice = test: Animal experiment comparing surfactin-C14 and surfactin-C15: subcutaneous injection in right inguinal region, four administrations; settings: for Mean adipocyte area (x±SEM, mm^2) / Mean adipocyte density (x±SEM, n/mm^2): H-E sections
Procedure: Female Kunming mice (aged 7-8 weeks, weighing 25.55-33.76 g) were taken, ranked in ascending order of body weight, and divided into groups of 7-8 mice using a Latin method. The tails of mice in each cage were marked and distinguished with an oil-based permanent marker.
Based on the injection dose of the positive drug reported in the literature, the subcutaneous injection dose for this test was determined to be 10 mg/mL at a volume of 200 µL. Subcutaneous injection was performed using a four-needle mesotherapy tip (34 G, 1.5 mm long, inner diameter 0.6 mm). Administration was performed sequentially from top to bottom along the right inguinal region. Administration was performed once every 14 days for a total of four administrations.
During the administration period, food intake, water consumption and general activity of all experimental animals in each group were observed daily under identical feeding conditions and housing environments. Daily observation was performed on each mouse to check for ulceration, induration and other lesions at the administration site. 14 days after the second administration, two mice from each group were sacrificed and dissected. All the remaining mice were sacrificed and dissected 14 days after the fourth administration.
In this example, changes in adipose tissue at the administration sites of experimental mice were statistically analyzed. Specifically, the adipose tissue was excised from the inguinal region on the inoculated side (right side), weighed and recorded. The adipose tissue-to-body weight percentage of the inoculated side for each mouse was then calculated using the formula: [(weight of adipose tissue on the inoculated side/body weight of the mouse) × 100%].
Further statistical analysis was performed on adipocyte density and adipocyte area. The adipose tissue from the inoculated side was immersed in adipose tissue fixative and sent for hematoxylin-eosin (H-E) staining. After imaging was completed, all measurements were standardized in millimeters. The area of adipose tissue in each image was measured, and the number of adipocytes in each image was counted. The area of a single adipocyte was calculated as: adipocyte area = total adipose tissue area/adipocyte number; adipocyte density = adipocyte number/total adipose tissue area.

[2] = 1 mg/mL (low-dose), four administrations
[3] = 5 mg/mL (medium-dose), four administrations
[4] = 10 mg/mL, four administrations once every 14 days, right inguinal

## surfactin-C13 [HXRZ-A]
[1]; 0.005 mg/mL
  relative growth rate: 97.66±3.27 c %
[1]; 0.01 mg/mL
  relative growth rate: 97.00±3.13 b, c %
[1]; 0.02 mg/mL
  relative growth rate: 34.74±3.25 #, b, c %
[1]; 0.04 mg/mL
  relative growth rate: 9.83±0.36 %
[1]; 0.08 mg/mL
  relative growth rate: 9.27±0.24 b, c %

## surfactin-C14 [HXRZ-B]
[1]; 0.005 mg/mL
  relative growth rate: 89.75±7.04 #, c %
[1]; 0.01 mg/mL
  relative growth rate: 46.22±4.26 #, a %
[1]; 0.02 mg/mL
  relative growth rate: 14.74±0.48 #, a %
[1]; 0.04 mg/mL
  relative growth rate: 9.02±0.37 #, c %
[1]; 0.08 mg/mL
  relative growth rate: 8.11±0.24 #, a, c %
Female Kunming mice; 1 mg/mL (low-dose)
  Mean adipocyte area (x±SEM, mm^2): 0.00284±0.000267 mm^2
  Mean adipocyte density (x±SEM, n/mm^2): 418.7156±85.9688 n/mm^2
Female Kunming mice; [2]
  Mean wet adipose tissue weight (x±SEM, unit: g): 0.326 ± 0.106 g
  Mean wet adipose tissue weight/body weight percentage (x±SEM, %): 0.76±0.21%
Female Kunming mice; 5 mg/mL (medium-dose)
  Mean adipocyte area (x±SEM, mm^2): 0.003554±0.00047 mm^2
  Mean adipocyte density (x±SEM, n/mm^2): 313.2046±85.5687 n/mm^2
Female Kunming mice; [3]
  Mean wet adipose tissue weight (x±SEM, unit: g): 0.225 ± 0.039 g
  Mean wet adipose tissue weight/body weight percentage (x±SEM, %): 0.56±0.08 %
Female Kunming mice; 10 mg/mL, four administrations
  Mean wet adipose tissue weight/body weight percentage (x±SEM, %): 0.58±0.07 %
  Mean adipocyte area (x±SEM, mm^2): 0.003177±0.000284 mm^2
  Mean adipocyte density (x±SEM, n/mm^2): 340.3195±31.7463 n/mm^2
Female Kunming mice; [4]
  Mean wet adipose tissue weight (x±SEM, unit: g): 0.232 ± 0.032 g

## surfactin-C15 [HXRZ-C]
[1]; 0.005 mg/mL
  relative growth rate: 76.06±3.24 #, a, b %
[1]; 0.01 mg/mL
  relative growth rate: 43.53±3.35 #, a %
[1]; 0.02 mg/mL
  relative growth rate: 17.61±1.76 #, a %
[1]; 0.04 mg/mL
  relative growth rate: 10.29±0.38 b %
[1]; 0.08 mg/mL
  relative growth rate: 10.31±0.48 *,#,a,b %
[1]
  IC50 against adipocytes relative to HXRZ-A: approximately half that of HXRZ-A
Female Kunming mice; 1 mg/mL (low-dose)
  Mean adipocyte area (x±SEM, mm^2): 0.003222±0.000161 mm^2
  Mean adipocyte density (x±SEM, n/mm^2): 355.3684±57.4571 n/mm^2
Female Kunming mice; [2]
  Mean wet adipose tissue weight (x±SEM, unit: g): 0.198 ± 0.030 g
  Mean wet adipose tissue weight/body weight percentage (x±SEM, %): 0.51±0.08 %
Female Kunming mice; 5 mg/mL (medium-dose)
  Mean adipocyte area (x±SEM, mm^2): 0.003297±0.000274 mm^2
  Mean adipocyte density (x±SEM, n/mm^2): 328.9026±63.1322 n/mm^2
Female Kunming mice; [3]
  Mean wet adipose tissue weight (x±SEM, unit: g): 0.209 ± 0.021 g
  Mean wet adipose tissue weight/body weight percentage (x±SEM, %): 0.53±0.05 %
Female Kunming mice; 10 mg/mL, four administrations
  Mean wet adipose tissue weight/body weight percentage (x±SEM, %): 0.48±0.02 %
  Mean adipocyte area (x±SEM, mm^2): 0.004632±0.000253 mm^2
  Mean adipocyte density (x±SEM, n/mm^2): 251.3400±31.0087 n/mm^2
Female Kunming mice; [4]
  Mean wet adipose tissue weight (x±SEM, unit: g): 0.188 ± 0.011 g
